This is an account of results in paper PMC6159918 (Peptides, 2018).

Where two headings read alike, the source gives them in different places.

Test [1] deals with NMBR. Nature of the test: [3H]IP production, NMBR agonist/antagonist. The test is classed as cell-based, human.
Test [2] concerns the target NMBR (Homo sapiens, UniProt P28336). Nature of the test: [3H]IP production, NMBR agonist/antagonist. The test is classed as cell-based. As to conditions: Peptide #1 (10 nM) + PD 1 μM; NCI-H727 (carcinoid); control 143 ± 21.
Test [3] concerns the target T1, human BRS-3-receptor (Homo sapiens, UniProt P32247).
T1 sequence (P32247 1-399): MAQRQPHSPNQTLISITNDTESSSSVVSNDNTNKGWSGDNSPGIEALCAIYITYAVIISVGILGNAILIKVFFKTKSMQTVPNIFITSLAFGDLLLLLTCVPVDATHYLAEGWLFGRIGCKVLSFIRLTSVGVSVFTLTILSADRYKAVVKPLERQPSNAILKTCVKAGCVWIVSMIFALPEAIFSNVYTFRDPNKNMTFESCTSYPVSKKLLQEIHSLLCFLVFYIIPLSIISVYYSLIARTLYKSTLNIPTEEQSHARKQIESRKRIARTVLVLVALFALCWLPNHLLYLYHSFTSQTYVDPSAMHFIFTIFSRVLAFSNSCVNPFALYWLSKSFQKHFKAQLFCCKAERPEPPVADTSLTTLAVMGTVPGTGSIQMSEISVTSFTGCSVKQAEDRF
Nature of the test: [3H]-inositol phosphates. The test is classed as cell-based. As to conditions: for decrease in [3H]IP-production stimulated by MK-5046 / inhibition of [3H]IP-production caused by peptide #1: Bantag-1 100 nM; for decrease in [3H]IP-production stimulated by MK-5046: MK-5046 10 nM; for inhibition of [3H]IP-production caused by peptide #1: peptide #1 10 nM.

Test [4] addresses T1, human BRS-3-receptor. The experiment in a line: Cytosolic Ca2+. The test is classed as cell-based.
In test [5] the test system is GRPR. The test is classed as cell-based, human.

Chain of NMBR (Homo sapiens, UniProt P28336) (P28336 whole entry): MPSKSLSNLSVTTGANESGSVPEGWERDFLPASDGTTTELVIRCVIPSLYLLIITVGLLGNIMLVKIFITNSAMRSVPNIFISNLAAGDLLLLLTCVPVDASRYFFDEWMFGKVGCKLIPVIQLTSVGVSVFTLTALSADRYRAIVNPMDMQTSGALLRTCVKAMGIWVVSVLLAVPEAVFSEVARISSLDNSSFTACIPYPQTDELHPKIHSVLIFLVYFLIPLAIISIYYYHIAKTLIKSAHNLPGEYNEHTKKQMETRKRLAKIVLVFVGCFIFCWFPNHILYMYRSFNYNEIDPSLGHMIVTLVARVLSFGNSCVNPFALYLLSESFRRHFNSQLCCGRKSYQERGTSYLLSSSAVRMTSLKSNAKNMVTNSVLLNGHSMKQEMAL

On to `C[C@@](Cc1c[nH]c2ccccc12)(NC(=O)Nc1ccc([N+](=O)[O-])cc1)C(=O)NCC1(c2ccccn2)CCCCC1` [PD168368], for which the “[3H]IP (DPM)” value came to 15006 ± 769 DPM in test [1] (Peptide #1 (10 nM) + PD 1 μM, Balb-3T3 BRS-3 transfected, control 2487 ± 185); 471 ± 121 DPM in test [1] (Peptide #1 (10 nM) + PD 1 μM, NCI-H69 (SCLC), control 177 ± 27); 2176 ± 518 DPM in test [1] (Peptide #1 (10 nM) + PD 1 μM, NCI-N417 (SCLC), control 660 ± 87); 157 ± 48 DPM in test [2].

As for “Boc-Phe-His-4-amino-5-cyclohexyl-2, 4, 5-trideoxypentonyl-Leu- (3-dimethylamino)benzyl amide-N-methyl ammonium trifluoroacetate [Bantag-1]”, the “decrease in [3H]IP-production stimulated by MK-5046” value in test [3] (BRS-3/Balb-cells) is given as 93%; in test [3] (NCI-H69) it was 81%; in test [3] (NCI-H727), 75%; in test [3] (NCI-N417), 99%. Also, the entries for the “inhibition of [3H]IP-production caused by peptide #1” value in test [3] (BRS-3/Balb-cells), in test [3] (NCI-H69-cells) and in test [3] (NCI-N417-cells) were 82%, 83% and 68%, respectively. Besides, the “[3H]IP (DPM)” value in test [3] (MK-5046 10 nM + Bantag 100 nM, Balb-3T3 BRS-3 transfected, control 2487 ± 185) is listed as 3697 ± 1064 DPM; in test [3] (MK-5046 10 nM + Bantag 100 nM, NCI-H69 (SCLC), control 177 ± 27), 256 ± 56 DPM; in test [3] (MK-5046 10 nM + Bantag 100 nM, NCI-H727 (carcinoid), control 143 ± 21), 215 ± 25 DPM; in test [3] (MK-5046 10 nM + Bantag 100 nM, NCI-N417 (SCLC), control 660 ± 87) it was 678 ± 82 DPM; in test [3] (Peptide #1 (10 nM) + Bantag 100 nM, NCI-H69 (SCLC), control 177 ± 27), 265 ± 35 DPM; in test [3] (Peptide #1 (10 nM) + Bantag 100 nM, NCI-H727 (carcinoid), control 143 ± 21), 176 ± 27 DPM. Also, the “[3H]IP (DPM)” value in test [3] (Peptide #1 (10 nM) + Bantag 100 nM, NCI-N417 (SCLC), control 660 ± 87) came to 1125 ± 154 DPM. Besides, the “inhibition of MK-5046 stimulated increases in cytosolic calcium” value in test [4] (Bantag-1 1000 nM, two cell lines (NCI-H727, H782)) is reported as “completely inhibited”. Further, in test [4] (NCI-82, NCI-H460 and NCI-H727 cells), the “inhibition of MK-5046 stimulation of increases in (Ca2+)i” value is on record as “inhibited”.

Turning to [D-Phe^6]Bombesin-(6–13)-methyl ester, the “[3H]IP (DPM)” value in test [5] (Peptide #1 (10 nM) + ME 1 μM, Balb-3T3 BRS-3 transfected, control 2487 ± 185) is reported as 16107 ± 100 DPM; in test [5] (Peptide #1 (10 nM) + ME 1 μM, NCI-N417 (SCLC), control 660 ± 87), 2513 ± 662 DPM.

On to “[D-Tyr^6, β-Ala^11, Phe^13, Nle^14]Bn- (6–14) [Peptide #1]”, for which the “[3H]IP (DPM)” value in test [3] (Peptide #1 10 nM, Balb-3T3 BRS-3 transfected, control 2487 ± 185) is 16341 ± 1071 DPM; in test [3] (Peptide #1 10 nM, NCI-H69 (SCLC), control 177 ± 27), 680 ± 73 DPM; in test [3] (Peptide #1 10 nM, NCI-H727 (carcinoid), control 143 ± 21), 235 ± 25 DPM; in test [3] (Peptide #1 10 nM, NCI-N417 (SCLC), control 660 ± 87), 2131 ± 244 DPM.

gastrin-releasing peptide [GRP]: the “[3H]IP (DPM)” value in test [5] (GRP 100 nM, Balb-3T3 BRS-3 transfected, control 2487 ± 185) came out at 2519 ± 744 DPM; in test [5] (GRP 100 nM, NCI-N417 (SCLC), control 660 ± 87), 881 ± 204 DPM; in test [5] (GRP 1 μM, NCI-N417 (SCLC), control 660 ± 87) it was 724 ± 138 DPM. In addition, the “PLC activation in 4 cell-lines (NCI-H69, NCI-N417, NCI-H727, BRS-3/Balb)” value in test [5] (GRP at 10 nM and 100 nM) is on record as “activated PLC only in NCI-H727-cells”.

For neuromedin B [NMB], the “[3H]IP (DPM)” value in test [1] (NMB 100 nM, Balb-3T3 BRS-3 transfected, control 2487 ± 185) was 2697 ± 720 DPM; in test [1] (NMB 100 nM, NCI-H69 (SCLC), control 177 ± 27) it was 186 ± 20 DPM; in test [1] (NMB 100 nM, NCI-N417 (SCLC), control 660 ± 87) it was 706 ± 132 DPM; in test [1] (NMB 1 μM, Balb-3T3 BRS-3 transfected, control 2487 ± 185) it was 2652 ± 838 DPM; in test [1] (NMB 1 μM, NCI-H69 (SCLC), control 177 ± 27), 187 ± 37 DPM; in test [1] (NMB 1 μM, NCI-N417 (SCLC), control 660 ± 87), 707 ± 137 DPM. In addition, in test [1] (NMB at 10 nM and 100 nM), the “PLC activation in 4 cell-lines (NCI-H69, NCI-N417, NCI-H727, BRS-3/Balb)” value is reported as “activated PLC only in NCI-H727-cells”.
